In patent US20060068389A1, “Methods and compositions for inhibiting hiv replication” (priority 2002, published 2006):

Tests used:
Vpr [1] = settings: typical of multiple assays, FIG. 1
From the text: Accordingly to test if additional anti-glucocorticoids might mediate similar effects, screening assays were developed based on the above Vpr activities which include inhibition of antiviral activity, rescue of the inhibition of cell proliferation and viral transactivation studies. Mifepristone analogues were chosen by SAR analysis.

Rip-1 = assay: Vpr mediated stimulation of Rip-1 nuclear translocation; format: cell-based, human
From the text: (§1) The Vpr gene of HIV-1 encodes a 15 KD virion associated protein which functions as a regulator of cellular processes linked to the HIV life cycle. We observed the interaction of a 41-kD cytosolic viral protein R interacting protein-1 (rip-1), associated with Vpr in vitro, and co-localizes in cells ex vivo. […] This protein co-elutes with Vpr in an immunoaffmity system and can be cross-linked with Vpr to form a 58 Kd complex. […] The Vpr mediated stimulation of Rip-1 nuclear translocation, and the viral complementation accomplished with exogenous Vpr protein was mimicked by GR II stimulating steroids. These effects were inhibited by mifepristone, a well-characterized GR II pathway inhibitor. In addition, the levels of LTR-CAT induction attained by Vpr protein were similarly obtained by GR activating steroids. Vpr protein induced CAT activity in cells transfected with a plasmid that contains CAT linked to HIV-1 LTR, pLTR-CAT, and co-localized with Dexamethasone as to the site of its induction of CAT activity from a panel of HIV-1 LTR CAT deletion mutants. In addition, Vpr stimulated the formation of the DNA binding complex which associates with GRE sequences during the glucocorticoid mediated transactivation process.

Vpr [2] = assay: Viral complementation accomplished with exogenous Vpr protein; format: cell-based, HIV-1
From the text: as §1

Row | Compound | activity in the above assays (Vpr-based screening assays) (Vpr [1]) | inhibition of Vpr mediated stimulation of Rip-1 nuclear translocation (Rip-1) | inhibition of viral complementation accomplished with exogenous Vpr protein (Vpr [2])
1 | CC(=O)C1CCC2C3C=CC4=CC(=O)CCC4(C)C3CCC12C (stereo not shown) [Compound D1, Pregna4,6,-diene-3,20-dione] | some activity | – | –
2 | CC#C[C@]1(O)CC[C@H]2[C@@H]3CCC4=CC(=O)CCC4=C3[C@@H](c3ccc(N(C)C)cc3)C[C@@]21C [mifepristone] | – | inhibited | inhibited
3 | C#C[C@]1(O)CCC2C3CCC4=C(CCC(=O)C4)C3CCC21C (stereo partly drawn) [Compound D2, 17-α-ethynyl-17-β-hydroxyestr-5(10)-En-3-one] | some activity | – | –
